These results are taken from US9416133B2, “Hydropyrrolopyrrole derivatives for use as fatty acid synthase inhibitors” (MERCK PATENT GMBH, priority 2012, dated 2016).

The assay has as its target T1, human recombinant full-length fatty acid synthase (FASN) (Homo sapiens, UniProt P49327).
T1 construct: 40 nM human recombinant full-length fatty acid synthase (produced in-house in SF9 cells); made in house; host or cells: SF9 cells
The experiment in a line: Biochemical activity testing of human fatty acid synthase FASN (NADPH fluorescence intensity enzyme assay). Particulars: inhibition of NADPH conversion. The text has this:
Biochemical Activity Testing of Human Fatty Acid Synthase FASN
Fatty acid synthase FASN is a multifunctional enzyme with seven catalytic activities thereby synthesising long chain fatty acids especially palmitoyl-CoA in the presence of co-factor NADPH starting from the substrates acetyl-CoA and malonyl-CoA. The reductive synthesis is realized by the oxidation of NADPH to NADP. Since NADPH has a high fluorescence intensity quantum yield compared to NADP with excitation at 340 nm and emission at 460 nm, the reaction can be monitored via the decrease in fluorescence intensity. The biochemical FASN activity testing was performed as 384 well two-time-point kinetic fluorescence intensity assay format in Greiner low volume medium binding 384-well black microtiter plates in a total assay volume of 8 μl and was used for high throughput screen. In each well 3 μl 40 nM human recombinant full-length fatty acid synthase (produced in-house in SF9 cells) were dispensed in the following assay buffer: 50 mM potassium phosphate buffer pH 7.0, 0.005% (w/v) BSA, 2 mM Glutathione, 0.02% Tween-20. Then 2 μl of 200 μM NADPH in assay buffer were added, followed by the addition of the test compounds in 10 dilution concentrations starting with 30 μM (final concentration) to get a final DMSO content of 1% (v/v). The mixture was incubated for at least 15 min at room temperature. After the pre-incubation the enzymatic reaction was started by the addition of 2 μl substrate solution (80 μM acetyl-CoA, 240 μM malonyl-CoA). A first fluorescence intensity measurement (time point one) was performed with an Envision multimode reader (Perkin Elmer LAS Germany GmbH) at excitation wavelength 340 nm (lamp mode) and emission wavelength 460 nm. The reaction was incubated for 30 minutes at room temperature. After this the fluorescence intensity was measured again in the Envision using the same parameters as described above (second time point measurement). The data were analysed by subtracting the first time point measurement value from the second time point measurement value (after the enzymatic reaction). The differences of the emission signals were determined. These reflect directly the conversion rate of NADPH. The full value used was the inhibitor-free reaction. A pharmacological zero value was used like GSK837149A (Sigma-Aldrich) in a final concentration of 5-10 μM. The inhibitory values (IC50) were determined using either the program Symyx Assay Explorer® or Condosseo® from GeneData.

T1 sequence (P49327 whole entry): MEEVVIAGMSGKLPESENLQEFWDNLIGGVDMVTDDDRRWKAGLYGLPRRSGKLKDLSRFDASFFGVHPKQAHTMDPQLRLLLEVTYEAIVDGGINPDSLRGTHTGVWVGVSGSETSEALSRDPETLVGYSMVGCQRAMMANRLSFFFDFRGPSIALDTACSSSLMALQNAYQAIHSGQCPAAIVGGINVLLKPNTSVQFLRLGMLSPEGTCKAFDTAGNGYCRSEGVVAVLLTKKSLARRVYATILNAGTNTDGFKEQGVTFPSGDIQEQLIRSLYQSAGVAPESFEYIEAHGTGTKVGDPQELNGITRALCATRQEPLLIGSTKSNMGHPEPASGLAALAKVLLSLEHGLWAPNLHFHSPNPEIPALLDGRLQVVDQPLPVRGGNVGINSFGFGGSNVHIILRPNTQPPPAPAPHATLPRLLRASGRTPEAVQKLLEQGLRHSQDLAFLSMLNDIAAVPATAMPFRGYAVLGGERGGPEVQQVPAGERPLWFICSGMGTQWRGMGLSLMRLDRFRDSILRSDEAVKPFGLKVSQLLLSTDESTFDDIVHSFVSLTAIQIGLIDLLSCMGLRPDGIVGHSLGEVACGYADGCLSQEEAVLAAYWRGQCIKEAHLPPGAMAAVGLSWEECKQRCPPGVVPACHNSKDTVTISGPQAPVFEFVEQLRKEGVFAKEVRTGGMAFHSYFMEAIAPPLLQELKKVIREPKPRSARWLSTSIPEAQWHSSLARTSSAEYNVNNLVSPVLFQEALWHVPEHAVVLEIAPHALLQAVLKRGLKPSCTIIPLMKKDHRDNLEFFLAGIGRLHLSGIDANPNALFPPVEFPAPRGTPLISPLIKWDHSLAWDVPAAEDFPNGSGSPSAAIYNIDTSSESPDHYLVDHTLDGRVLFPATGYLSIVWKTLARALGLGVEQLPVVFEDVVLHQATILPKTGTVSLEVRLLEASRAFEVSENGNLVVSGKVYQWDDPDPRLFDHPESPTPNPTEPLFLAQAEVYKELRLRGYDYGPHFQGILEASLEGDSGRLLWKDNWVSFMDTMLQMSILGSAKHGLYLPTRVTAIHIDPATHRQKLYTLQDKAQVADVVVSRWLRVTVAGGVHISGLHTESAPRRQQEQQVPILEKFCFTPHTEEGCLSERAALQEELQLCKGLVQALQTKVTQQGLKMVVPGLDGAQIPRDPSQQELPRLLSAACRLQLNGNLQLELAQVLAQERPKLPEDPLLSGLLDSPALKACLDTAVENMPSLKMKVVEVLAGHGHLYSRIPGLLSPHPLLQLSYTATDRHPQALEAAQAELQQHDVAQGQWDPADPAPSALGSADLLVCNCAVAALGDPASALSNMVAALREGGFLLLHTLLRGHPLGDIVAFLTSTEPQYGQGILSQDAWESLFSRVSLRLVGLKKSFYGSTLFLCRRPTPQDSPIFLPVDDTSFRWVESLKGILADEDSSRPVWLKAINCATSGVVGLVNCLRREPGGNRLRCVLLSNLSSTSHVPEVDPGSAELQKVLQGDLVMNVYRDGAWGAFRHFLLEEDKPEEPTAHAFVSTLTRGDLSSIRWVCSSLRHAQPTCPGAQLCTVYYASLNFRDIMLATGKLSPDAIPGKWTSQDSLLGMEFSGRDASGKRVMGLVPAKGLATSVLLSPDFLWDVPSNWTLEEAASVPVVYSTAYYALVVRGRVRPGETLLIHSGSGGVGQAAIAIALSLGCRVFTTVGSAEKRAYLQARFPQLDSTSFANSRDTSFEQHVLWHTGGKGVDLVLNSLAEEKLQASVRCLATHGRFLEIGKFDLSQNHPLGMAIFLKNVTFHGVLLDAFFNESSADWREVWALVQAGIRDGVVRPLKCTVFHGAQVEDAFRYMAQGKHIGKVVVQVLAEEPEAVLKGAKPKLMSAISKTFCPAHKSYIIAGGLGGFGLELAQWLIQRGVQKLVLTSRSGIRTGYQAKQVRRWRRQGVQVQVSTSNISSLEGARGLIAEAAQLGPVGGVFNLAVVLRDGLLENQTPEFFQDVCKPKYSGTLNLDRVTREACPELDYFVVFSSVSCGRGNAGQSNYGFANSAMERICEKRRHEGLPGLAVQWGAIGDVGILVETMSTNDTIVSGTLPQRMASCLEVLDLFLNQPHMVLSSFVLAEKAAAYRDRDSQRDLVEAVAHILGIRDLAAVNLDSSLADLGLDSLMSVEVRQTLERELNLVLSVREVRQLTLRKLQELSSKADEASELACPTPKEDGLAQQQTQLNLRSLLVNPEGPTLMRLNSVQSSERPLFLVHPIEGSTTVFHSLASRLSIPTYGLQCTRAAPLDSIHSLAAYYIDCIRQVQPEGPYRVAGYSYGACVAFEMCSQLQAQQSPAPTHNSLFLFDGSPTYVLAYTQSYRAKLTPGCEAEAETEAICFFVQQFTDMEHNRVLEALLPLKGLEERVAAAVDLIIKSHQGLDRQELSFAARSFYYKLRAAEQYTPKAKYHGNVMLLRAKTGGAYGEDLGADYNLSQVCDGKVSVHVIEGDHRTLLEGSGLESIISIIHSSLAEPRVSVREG

In the case of `CCC(=O)N1CC2CN(C(=O)c3ccc(-c4ccc5cnccc5c4)cc3)CC2C1` (centres unmarked) [Compound A1, 1-[5-(4-isoquinolin-6-yl-benzoyl)-hexahydro-pyrrolo[3,4-c]pyrrol-2-yl]-propan-1-one], the 50% inhibitory concentration (IC50) (as a rule, the midpoint of a concentration-inhibition curve) was under 0.3 µM.
As to `CCC(=O)N1CC2CN(C(=O)c3ccc(-c4ccc5ccoc5c4)cc3)CC2C1` (centres unmarked) [Compound A2, 1-[5-(4-benzofuran-6-yl-benzoyl)-hexahydro-pyrrolo[3,4-c]pyrrol-2-yl]-propan-1-one], the IC50 fell in the range of 0.3 to 3 µM.
As for `CC(=O)N1CC2CN(C(=O)c3ccc(-c4ccc5cnccc5c4)cc3)CC2C1` (centres unmarked) [Compound A3, 1-[5-(4-isoquinolin-6-yl-benzoyl)-hexahydro-pyrrolo[3,4-c]pyrrol-2-yl]-ethanone], the concentration for half-maximal inhibition (IC50) fell in the range of 0.3 to 3 µM.
With `CCC(=O)N1CC2CN(C(=O)c3ccc(-c4ccc5cc[nH]c5c4)cc3)CC2C1` (centres unmarked) [Compound A4, 1-{5-[4-(1H-indol-6-yl)-benzoyl]-hexahydro-pyrrolo[3,4-c]pyrrol-2-yl}-propan-1-one] the figure was 0.3 to 3 µM.
For `O=C(c1ccc(-c2ccc3cc[nH]c3c2)cc1)N1CC2CN(C(=O)C3CC3)CC2C1` (centres unmarked) [Compound A5, (5-cyclopropanecarbonyl-hexahydro-pyrrolo[3,4-c]pyrrol-2-yl)-[4-(1H-indol-6-yl)-phenyl]-methanone], the IC50 is 0.3 to 3 µM.
Under `CC(=O)N1CC2CN(C(=O)c3ccc(-c4ccc5ccoc5c4)cc3)CC2C1` (centres unmarked) [Compound A6, 1-[5-(4-benzofuran-6-yl-benzoyl)-hexahydro-pyrrolo[3,4-c]pyrrol-2-yl]-ethanone] stands 3 to 50 µM; under `CC(=O)N1CC2CN(C(=O)c3ccc(-c4ccc5cc[nH]c5c4)cc3)CC2C1` (centres unmarked) [Compound A7, 1-{5-[4-(1H-indol-6-yl)-benzoyl]-hexahydro-pyrrolo[3,4-c]pyrrol-2-yl}-ethanone], 0.3 to 3 µM; under `O=C(c1ccc(-c2ccc3cnccc3c2)cc1)N1CC2CN(C(=O)C3CC3)CC2C1` (centres unmarked) [Compound A8, (5-cyclopropanecarbonyl-hexahydro-pyrrolo[3,4-c]pyrrol-2-yl)-(4-isoquinolin-6-yl-phenyl)-methanone], 0.3 to 3 µM.
